Results from patent US4107424A, “1-N-[(S)-α-hydroxy-ω-aminoacyl] derivatives of 3',4'-dideoxykanamycin B and 3'-deoxykanamycin B antibiotics” (Zaidan Hojin Biseibutsu Kagaku Kenkyu Kai, priority 1972, dated 1978).
Values after ≈ are worked out from the molar mass of the structure shown. Where two headings read alike, the source gives them in different places.

Columns and labels:
[1] = system: Klebsiella pneumoniae type 22 #3038; experiment: Minimal inhibitory concentration, agar dilution streak method; format: cell-based; conditions: Klebsiella pneumoniae; nutrient agar, 37° C, 18 hours
Description: (§1) *Agar Agar dilution streak method (nutrient agar, 37° C, 18 hours)
(§2) *Agar dilution streak method (nutrient agar, 37° C, 18 hours).

[2] = system: Escherichia coli K-12 ML 1629; experiment: as above; format: cell-based; conditions: K12ML1629, nutrient agar, 37° C, 18 hours
Description: as §1, §2

[3] = system: Escherichia coli K-12 LA 290 R 56; experiment: as above; format: cell-based; conditions: 18 h
Description: as §1, §2

[4] = system: Escherichia coli K-12 LA 290 R 64; experiment: as above; format: cell-based; conditions: nutrient agar, 37° C, 18 hours
Description: as §1, §2

[5] = system: Pseudomonas aeruginosa A 3; experiment: as above; format: cell-based; conditions: A3, nutrient agar, 37° C, 18 hours
Description: as §1, §2

[6] = system: Escherichia coli K-12 W 677; experiment: as above; format: cell-based; conditions: K12W677, nutrient agar, 37° C, 18 hours
Description: as §1, §2

[7] = system: Escherichia coli K-12 LA 290 R 55; experiment: as above; format: cell-based; conditions: 18 h
Description: as §1, §2

[8] = system: Escherichia coli K-12; experiment: as above; format: cell-based; conditions: K12, nutrient agar, 37° C, 18 hours
Description: as §1, §2

[9] = system: Pseudomonas aeruginosa GN 315; experiment: as above; format: cell-based; conditions: GN315, nutrient agar, 37° C, 18 hours, read-out: Minimal inhibitory concentration
Description: as §1, §2

[10] = system: Pseudomonas aeruginosa TI-13; experiment: as above; format: cell-based; conditions: TI13, nutrient agar, 37° C, 18 hours
Description: as §1, §2

[11] = system: Escherichia coli K-12 ML 1410 R 81; experiment: as above; format: cell-based; conditions: 18 h
Description: as §1, §2

[12] = system: Pseudomonas aeruginosa No.12; experiment: as above; format: cell-based; conditions: nutrient agar, 37° C, 18 hours
Description: as §1, §2

[13] = system: Escherichia coli K-12 ML 1630; experiment: as above; format: cell-based; conditions: K12ML1630, nutrient agar, 37° C, 18 hours
Description: as §1, §2

[14] = system: Escherichia coli K-12 JR 66/W 677; experiment: as above; format: cell-based; conditions: Escherichia coli, 18 h
Description: as §1, §2

[15] = system: Staphylococcus aureus FDA 209P; experiment: as above; format: cell-based; conditions: FDA209P, nutrient agar, 37° C, 18 hours
Description: as §1, §2

[16] = system: Escherichia coli K-12 ML 1410; experiment: as above; format: cell-based; conditions: K12ML1410, nutrient agar, 37° C, 18 hours
Description: as §1, §2

[17] = system: Klebsiella pneumoniae PCI 1602; experiment: Minimum inhibitory concentration, serial dilution method; format: cell-based; conditions: PCI1602, 18 h, read-out: Minimum inhibitory concentrations
[18] = system: Shigella flexneri 4b JS 11811; experiment: as above; format: cell-based; conditions: 4BJS11811, nutrient agar, 37° C, 18 hours, read-out: Minimum inhibitory concentrations
[19] = system: Staphylococcus aureus Terajima; experiment: as above; format: cell-based; conditions: 18 h, read-out: Minimum inhibitory concentrations
[20] = system: Proetus vulgaris OX 19; experiment: as above; format: cell-based; conditions: nutrient agar, 37° C, 18 hours; read-out: Minimum inhibitory concentrations
[21] = system: Salmonella enteritidis 1891; experiment: as above; format: cell-based; conditions: Salmonella enterica, nutrient agar, 37° C, 18 hours, read-out: Minimum inhibitory concentrations
[22] = system: Corynebacterium bovis 1810; experiment: as above; format: cell-based; conditions: Corynebacterium bovis, 1810, 18 h, read-out: Minimum inhibitory concentrations
[23] = system: Mycobacterium smegmatis ATCC 607; experiment: Minimal inhibitory concentration, agar dilution streak method; format: cell-based; conditions: Mycolicibacterium smegmatis, ATCC607; nutrient agar, 37° C, 18 hours; read-out: Minimum inhibitory concentrations
[24] = system: Shigella sonnei JS 11746; experiment: Minimum inhibitory concentration, serial dilution method; format: cell-based; conditions: JS11746, nutrient agar, 37° C, 18 hours, read-out: Minimum inhibitory concentrations
[25] = system: Shigella dysenteriae JS 11910; experiment: as above; format: cell-based; conditions: JS11910, 18 h, read-out: Minimum inhibitory concentrations
[26] = system: Bacillus subtilis PCI 219; experiment: as above; format: cell-based; conditions: PCI219, 18 h, read-out: Minimum inhibitory concentrations
[27] = system: Staphylococcus aureus Smith; experiment: as above; format: cell-based; conditions: 18 h, read-out: Minimum inhibitory concentrations
[28] = system: Bacillus cereus ATCC 10702; experiment: as above; format: cell-based; conditions: ATCC10702, nutrient agar, 37° C, 18 hours, read-out: Minimum inhibitory concentrations
[29] = system: Bacillus anthracis; experiment: microbe, parasite or virus in culture; format: cell-based; conditions: 18 h, read-out: Minimum inhibitory concentrations
[30] = system: Escherichia coli NIHJ; experiment: Minimal inhibitory concentration, agar dilution streak method; format: cell-based; conditions: nutrient agar, 37° C, 18 hours
Description: (§3) [α]D^22 + 38°, (c 0.85, water).
as §1, §2

[31] = system: Pseudomonas aeruginosa 99; experiment: as above; format: cell-based; conditions: nutrient agar, 37° C, 18 hours
Description: as §3, §1, §2

[32] = system: Escherichia coli K-12 R-5; experiment: as above; format: cell-based; conditions: K12R5, nutrient agar, 37° C, 18 hours
Description: as §3, §1, §2

[33] = system: Sarcina lutea PCI 1001; experiment: as above; format: cell-based; conditions: Micrococcus luteus, PCI1001, 18 h, read-out: Minimal inhibitory concentration
Description: as §3, §1, §2

[34] = system: Salmonella typhosa T-63; experiment: as above; format: cell-based; conditions: Salmonella enterica, nutrient agar, 37° C, 18 hours
Description: as §3, §1, §2

[35] = system: nucleotidyl-transferase; conditions: adenylylation of 2"-hydroxyl group with ATP; cited from earlier work
[36] = read-out: Minimal inhibitory concentration
[37] = read-out: minimum inhibitory concentrations

NC[C@H]1O[C@H](O[C@H]2[C@H](O)[C@@H](O[C@H]3O[C@H](CO)[C@@H](O)[C@H](N)[C@H]3O)[C@H](N)C[C@@H]2N)[C@H](N)[C@@H](O)[C@@H]1O [Kanamycin B, kanamycin B]
MIC [1]: > 100 µg/mL
MIC [2, 36]: > 100 µg/mL
MIC [3, 36]: 3.13 µg/mL (≈ 6.47 µM)
MIC [4, 36]: 3.13 µg/mL (≈ 6.47 µM)
MIC [5, 36]: 50 µg/mL (≈ 103 µM)
MIC [6, 36]: 0.39 µg/mL (≈ 0.807 µM)
MIC [7, 36]: 12.5 µg/mL (≈ 25.9 µM)
MIC [8, 36]: 0.78 µg/mL (≈ 1.61 µM)
MIC [9]: > 100 µg/mL
MIC [10, 36]: 100 µg/mL (≈ 207 µM)
MIC [11, 36]: > 100 µg/mL
MIC [12, 36]: 12.5 µg/mL (≈ 25.9 µM)
MIC [13, 36]: > 100 µg/mL
MIC [14, 36]: > 100 µg/mL
MIC [15, 36]: 0.39 µg/mL (≈ 0.807 µM)
MIC [16, 36]: 0.78 µg/mL (≈ 1.61 µM)
MIC [17]: 0.78 µg/mL (≈ 1.61 µM)
MIC [18]: 3.13 µg/mL (≈ 6.47 µM)
MIC [19]: < 0.2 µg/mL
MIC [20]: 0.78 µg/mL (≈ 1.61 µM)
MIC [21]: 1.56 µg/mL (≈ 3.23 µM)
MIC [22]: 1.56 µg/mL (≈ 3.23 µM)
MIC [23]: 0.78 µg/mL (≈ 1.61 µM)
MIC [24]: 1.56 µg/mL (≈ 3.23 µM)
MIC [25]: 3.13 µg/mL (≈ 6.47 µM)
MIC [26]: < 0.2 µg/mL
MIC [27]: < 0.2 µg/mL
MIC [28]: 0.78 µg/mL (≈ 1.61 µM)
MIC [29]: < 0.2 µg/mL
MIC [30]: 0.78 µg/mL (≈ 1.61 µM)
MIC [31, 36]: > 100 µg/mL
MIC [32]: 1.56 µg/mL (≈ 3.23 µM)
MIC [33]: 1.56 µg/mL (≈ 3.23 µM)
MIC [34]: 0.2 µg/mL (≈ 0.414 µM)

NC[C@H]1O[C@H](O[C@H]2[C@H](O)[C@@H](O[C@H]3O[C@H](CO)[C@@H](O)[C@H](N)[C@H]3O)[C@H](N)C[C@@H]2N)[C@H](O)[C@@H](O)[C@@H]1O [Kanamycin, kanamycin]
MIC ([2]; drug-resistant strain, read-out: minimum inhibitory concentrations): > 100 µg/mL
MIC [3, 37]: 12.5 µg/mL (≈ 25.8 µM)
MIC [4, 37]: 12.5 µg/mL (≈ 25.8 µM)
MIC [5, 37]: > 100 µg/mL
MIC [6, 37]: 1.56 µg/mL (≈ 3.22 µM)
MIC [7, 37]: 100 µg/mL (≈ 206 µM)
MIC [8, 37]: 0.78 µg/mL (≈ 1.61 µM)
MIC [10, 37]: > 100 µg/mL
MIC [11, 37]: > 100 µg/mL
MIC [12, 37]: 50 µg/mL (≈ 103 µM)
MIC [13, 37]: > 100 µg/mL
MIC [14, 37]: > 100 µg/mL
MIC [15, 37]: 3.12 µg/mL (≈ 6.44 µM)
MIC [16, 37]: 1.56 µg/mL (≈ 3.22 µM)
inactivation by nucleotidyl-transferase [35]: inactivate
MIC [31, 37]: > 100 µg/mL
